Data as given in article PMC4352194, “Physicochemical and Biological Properties of Oxovanadium(IV), Cobalt(II) and Nickel(II) Complexes with Oxydiacetate Anions” (Biological Trace Element Research, 2014).

Experiments:
[1] = system: Human Dermal Fibroblasts adult (HDFa) cell line; experiment: Proliferation assay (BrdU ELISA); assay type: cell-based; conditions: 6 day-exposure, 24-h BrdU incorporation
Procedure: The Human Dermal Fibroblasts adult (HDFa) cell line (Cascade Biologics) was used in all experiments. Unless otherwise specified, cells were grown in the Dulbecco’s modified Eagle’s medium (DMEM) supplemented with 10 % fetal bovine serum (FBS) and 1× antibiotic and antimycotic solutions (all purchased from Sigma) and incubated at 310.15 K in the humidified 5 % CO2 atmosphere. The antiproliferative activity of compounds was assessed using the Cell Proliferation ELISA, BrdU (colorimetric) kit (Roche Applied Science). Cells were seeded at a number of 10^3 cells per well of 96-well tissue culture plate and incubated overnight at 310.15 K. The growth medium was substituted with the medium supplemented with tested compounds, and after 5 days of incubation, labelling with 5-bromo-2′-deoxyuridine (BrdU) was performed for another 24 h. Following steps were performed according to the manufacturer’s protocol.

[2] = Scavenging of superoxide radicals (NBT method); conditions: complex concentration causing 50 % reduction of superoxide ion referred to that of ascorbic acid; NBT assay in DMSO
Procedure: Nitro blue tetrazolium (NBT, 98 % purity), KO2 (96 % purity) and 18-Crown-6 (99 % purity) were purchased from Sigma-Aldrich. The superoxide scavenging activity of the complexes was determined by using their ability to inhibit the reduction of nitro blue tetrazolium (NBT) by superoxide ions. UV–vis measurements were carried out by using the Perkin-Elmer Lambda 650 spectrophotometer equipped with the temperature control—Peltier system with a scan accuracy of 1 and 1-nm slit width. The measurements were carried out in DMSO solution at 288.15 K according to the method described in the literature. Superoxide free radicals were generated by dissolving 6.5-mg portion of KO2 powder into DMSO (50 mL) together with 90 mg of 18-crown-6-ether. NBT (10 mg) was dissolved directly in DMSO (10 mL). In general, 1.5 mL of DMSO/KO2/18-crown-6 mixture was added to 0.5 mL of the sample to be assayed. The mixture was kept for 20 min and then 0.1 mL of NBT solution was added while stirring. The absorbance was monitored spectrophotometrically at 560 nm. The control test was carried out under the same experimental condition under assumption that KO2 and 18-crown-6 were absent in DMSO.
The ability of the complexes to scavenge superoxide anion radicals was evaluated by the NBT assay. The measurements were carried out in the DMSO solution in which KO2 was dissolved via the use of a crown ether to generate superoxide radicals (see Material and Methods).
The antioxidant activities of the complexes towards O2 ^− were compared to each other. Based on the obtained relationships (Fig. 3), the complex concentrations causing the 50 % reduction of the concentration of the superoxide ion were calculated. The obtained values were referred to the concentration of ascorbic acid causing the same O2 ^− reduction effect measured at the same experimental conditions. In this way, ascorbic acid equivalents of the complexes were obtained. They are equal 0.35, 1.11 and 4.50 for VO(ODA), Ni(ODA) and Co(ODA), respectively.

[3] = Potentiometric titration: stability constants of the complexes; assay type: physicochemical
Procedure: Potentiometric titrations were performed in a 30-mL thermostated (298.15 ± 0.10 K) cell using the Cerko Lab System microtitration unit fitted with a 5-mL Hamilton’s syringe, a pH combined electrode (Schott–BlueLine 16 pH type) and a self-made measuring cell equipped with a magnetic stirrer. The temperature was controlled using the Lauda E100 circulation thermostat. In aqueous solutions, the electrode was calibrated according to IUPAC recommendations. In binary systems (10–50 % v/v DMSO:H2O), the electrode calibration was performed by the Gran’s method using the GLEE program. For this purpose, the HClO4 solution was titrated with tetrabutylammonium hydroxide (Bu4NOH) solution both at the same mole fraction of organic solvent (10–50 (v/v%) DMSO). The syringe was calibrated by a weight method. The double distilled water of conductivity approximately 0.18 μS/cm was used throughout for the preparation of aqueous solutions. Other reagents used in the experiments were purchased from Sigma-Aldrich. They were as follows: VOSO4 (≥99.99 % trace metals basis), Co(NO3)2·6H2O (ACS reagent, ≥99 %), Ni(NO3)2·6H2O (99.999 %) and 2,2′-oxydiacetic acid (H2ODA, 98 %). All the solutions were prepared immediately before measurements. The compositions of the titrand solutions used in the experiments were as follows: (a) 2 mM Ni^2+ (Co^2+ or VO^2+), 5 mM H2ODA, 5 mM HClO4, (b) 2.5 mM H2ODA (for binary systems). The solutions (Vo = 5.0 mL) were potentiometrically titrated with the standardized 0.098 M NaOH solution or with the standardized 0.025 M Bu4NOH solution (in binary systems) in the pH range from 2.5 to 11.0. The titrant was added to the titrand in increments of 0.01 mL, with a pause of 60 s. Each titration was repeated at least three times in order to check the reproducibility of the data. The stability constants of the complexes were determined using the Hyperquad2008 program. The concentration distribution of various complex species existing in the solution as a function of pH was obtained using the HySS program.
The equilibrium constants defined by Eqs. (1) and (2):1 pM+qL+rH=MpLqHr 2 βpqr=MpLqHr/M^pL^qH^r (where M is VO^2+, Co^2+ or Ni^2+, L denotes the oxydiacetate ion, H is the proton and p, q, r are stoichiometric coefficients for the reaction) were refined by least-squares calculations using the Hyperquad2008 (version 5.2.19) computer program. For the oxovanadium(IV) system, the formation of the hydroxo complexes of VO(IV) were taken into account in the calculations of the stability constants. The following formation constants were taken from the literature and were fixed: logβ 10–1 = −5.94, logβ 20–2 = −6.95 and logβ 10–3 = −18. The equilibrium models presented in Table 2 have given the best fitting of the calculated data to the experimental ones.

[4] = PT, 298.15 K, aqueous, hydroxo species

Row | Compound | IC25 [1] | IC50 [1] | IC75 [1] | IC50 ([1]; listed as Ni(II) complex) | ascorbic acid equivalents [2] | logβ 110 (species ML), stability constant ([3]; PT, 298.15 K, aqueous) | logβ 11–2 (species MLH−2) [3, 4] | IC50 ([1]; listed as oxovanadium(IV) complex) | logβ 22–2 (species M2L2H−2) [3, 4] | pH at which hydroxo species predominate over the complex ([3]; species distribution M:L = 1:1 calculated from stability constants) | IC50 ([1]; listed as Co(II) complex)
1 | O.O.O.O.O.O.O.O.O.O=C([O-])COCC(=O)[O-].O=C([O-])COCC(=O)[O-].[Ni+2].[Ni+2] [Ni(ODA), [Ni(ODA)(H2O)3]·1.5H2O] | 148.65 µM | 220 µM | >1000 µM | ~200 µM | 1.11 | 3.52 (±0.02) | −14.17 (±0.06) |  |  |  | 
2 | O.O.O=C([O-])COCC(=O)[O-].[O]=[V+2] [VO(ODA), [VO(ODA)(H2O)2]] | 23.41 µM | 24.9 µM | 26.42 µM |  | 0.35 | 5.08 (±0.04) | −6.45 (±0.04) | 25 µM | 1.65 (±0.15) | > 5.5 | 
3 | O.O.O.O=C(O)COCC(=O)O.[Co] [Co(ODA), [Co(ODA)(H2O)2]·H2O] | 128.90 µM | 175 µM | >1000 µM |  | 4.50 | 3.45 (±0.11) | −14.88 (±0.14) |  |  |  | ~200 µM
